Entries after “also recorded” stand apart in the source; their conditions may differ.
Tests used:
interferon γ [1] = assay: Interferon γ mRNA in skin tissue by quantitative real-time PCR, Balb/c; format: in vivo, mouse; settings: atopy-induced Balb/c mice, normalized to β-actin
Experimental: (§1) After isolating total RNA from the atopy-induced skin tissue using 500 μL of Trizol (Life Technologies, USA) according to the manufacturer's protocol and synthesizing cDNA using the Superscript III reverse transcriptase (Life Technologies, USA), real-time PCR was conducted by reacting with the primers of IL4 and interferon γ to be analyzed. The real-time PCR was conducted on a StepOne Plus PCR cycler (Applied Biosystems) using SYBR Green (Applied Biosystems, Foster City, CA). The mRNA expression data were analyzed by the ΔΔCT method and were normalized to β-actin for gene detection. The primers necessary for the real-time PCR were purchased from Qiagen (USA). […] IL4 is known to induce TH2 response and interferon γ is known to induce TH1 response.

IgE [2] = assay: Serum IgE level by ELISA, Balb/c; format: in vivo, mouse; settings: atopy-induced Balb/c mice
Experimental: (§2) After treatment with the test substance, the mice were sacrificed and blood was taken from the heart. After isolating serum from the blood, IgE level was measured. Specifically, after attaching antibodies diluted in a buffer solution onto a 96-well plate and incubating overnight at 4° C., experiment was conducted using an IgE ELISA kit (BD Biosciences, San Diego, CA) according to the provided manual. The quantity of the IgE protein was determined by measuring absorbance at 450 nm using a microplate reader.

IgE [3] = assay: Serum IgE level by ELISA, Nc/Nga; format: in vivo, mouse; settings: atopy-induced Nc/Nga mice
Experimental: as §2

[4] = test system: atopic dermatitis-induced Nc/Nga mouse; assay: SCORAD clinical skin score, DNFB-induced atopic dermatitis in Nc/Nga mouse; format: in vivo; settings: for atopic dermatitis-treating effect (SCORAD, FIG. 3A) / dermatitis-treating effect of L-, L/D- and D-form (FIG. 6): Nc/Nga atopic dermatitis model; for atopic dermatitis-treating effect (SCORAD, FIG. 3A): 0.1% topical; for dermatitis-treating effect of L-, L/D- and D-form (FIG. 6): 0.1%; for effect in Nc/Nga model (back skin images, FIG. 3B): treated for 7 days, day 22
Summary of the method: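 Nc/Nga mice sensitized with 0.35% DNFB on shaved back, then challenged with 0.15% DNFB every other day; 0.1% N-acetyl/N-acylamino acid in PBS applied daily to back skin days 15–21, 12 h apart from DNFB. Blinded SCORAD: edema, erythema, eschar, dryness, abrasion, lichenification each graded 0–3, summed.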

interferon γ [5] = assay: Interferon γ mRNA in skin tissue by quantitative real-time PCR, Nc/Nga; format: in vivo, mouse; settings: atopy-induced Nc/Nga mice, normalized to β-actin
Experimental: as §1

IL4 [6] = assay: IL4 mRNA in skin tissue by quantitative real-time PCR, Balb/c; format: in vivo, mouse; settings: atopy-induced Balb/c mice, normalized to β-actin
Experimental: as §1

[7] = test system: atopic dermatitis-induced Nc/Nga mouse; assay: Hematoxylin/eosin staining of back skin tissue, epidermal and dermal thickness; format: in vivo; settings: 5 μm slices
Description: After extracting back skin tissues of the atopic dermatitis-induced and drug-treated Nc/Nga mice of Example 2, the tissues were fixed with an Accustain formalin-free fixative solution and then prepared into paraffin blocks. The paraffin blocks were sliced to a thickness of 5 μm and the change in the thickness of the epidermal and dermal layers was observed by staining with hematoxylin/eosin.

IL4 [8] = assay: IL4 mRNA in skin tissue by quantitative real-time PCR, Nc/Nga; format: in vivo, mouse; settings: atopy-induced Nc/Nga mice, normalized to β-actin
Experimental: as §1

[9] = test system: pruritus caused by atopic contact dermatitis; assay: Pruritus inhibition test, pruritus induced with DNFB; format: in vivo, mouse; settings: 0.1% in physiological saline applied once onto right ear, pruritus measured for 1 hour
Experimental: In order to investigate whether L-form, LID-form and D-form N-acetylalanine, N-acetylarginine, N-acetylthreonine and N-acetyltryptophan inhibit pruritus caused by atopic contact dermatitis, 20 μL of 0.1% 2,4-dinitrofluorobenzene (DNFB) solution and 0.1% N-acetylamino acid dissolved in physiological saline were applied once onto the right ear 10 minutes after the final treatment (day 27) with 2,4-dinitrofluorobenzene (DNFB) (Physiological saline was applied to a negative control group), and then pruritus was measured for 1 hour. FIG. 7 compares the pruritus-relieving effect of L-form N-acetylalanine, N-acetylthreonine, N-acetylarginine and N-acetyltryptophan with D/L-form and D-form N-acetylalanine and N-acetyltryptophan at 0.1% after the induction of pruritus with DNFB.

[10] = test system: atopic dermatitis-induced Balb/c mouse; assay: SCORAD clinical skin score, DNFB-induced atopic dermatitis in Balb/c mouse; format: in vivo; set-up: key to Mouse 1 Sum / Mean (of Sum, SCORAD) / Mouse 2 Sum / Mouse 3 Sum: sum of symptom grades, each 0 (none) to 3 (severe); settings: for skin-soothing and atopic dermatitis-treating effect (SCORAD, Table 1, FIG. 2A): Balb/c atopic dermatitis model, 0.1% topical, P<0.05 versus DNFB group; for apparent degree of dermatitis (back skin images, FIG. 2B): Balb/c, treated for 7 days, day 29; for Mouse 1 Erythema / Mouse 1 Abrasion / Mouse 1 Dryness / Mouse 1 Edema / Mouse 1 Eschar / Mouse 1 Lichenification / Mouse 1 Sum / Mouse 2 Abrasion / Mouse 2 Dryness / Mouse 2 Edema / Mouse 2 Erythema / Mouse 2 Eschar / Mouse 2 Lichenification / Mouse 2 Sum / Mouse 3 Abrasion / Mouse 3 Dryness / Mouse 3 Edema / Mouse 3 Erythema / Mouse 3 Eschar / Mouse 3 Lichenification / Mouse 3 Sum / Mean (of Sum, SCORAD): DNFB Balb/c; for Mouse 1 Erythema: 0.1% in PBS, 200 μL on back skin daily day 22-28, grade 0-3 (0 no symptom, 1 mild, 2 moderate, 3 severe); for Mouse 1 Abrasion / Mouse 1 Dryness / Mouse 1 Edema / Mouse 1 Eschar / Mouse 1 Lichenification / Mouse 1 Sum / Mouse 2 Abrasion / Mouse 2 Dryness / Mouse 2 Edema / Mouse 2 Erythema / Mouse 2 Eschar / Mouse 2 Lichenification / Mouse 2 Sum / Mouse 3 Abrasion / Mouse 3 Dryness / Mouse 3 Edema / Mouse 3 Erythema / Mouse 3 Eschar / Mouse 3 Lichenification / Mouse 3 Sum / Mean (of Sum, SCORAD): 0.1% topical day 22-28; for Mouse 1 Abrasion / Mouse 1 Dryness / Mouse 1 Edema / Mouse 1 Eschar / Mouse 1 Lichenification / Mouse 2 Abrasion / Mouse 2 Dryness / Mouse 2 Edema / Mouse 2 Erythema / Mouse 2 Eschar / Mouse 2 Lichenification / Mouse 3 Abrasion / Mouse 3 Dryness / Mouse 3 Edema / Mouse 3 Erythema / Mouse 3 Eschar / Mouse 3 Lichenification: grade 0-3; for Mouse 1 Sum / Mouse 2 Sum / Mouse 3 Sum: overall dermatitis score, sum of individual scores; for Mean (of Sum, SCORAD): mean of 3 mice
Summary of the method: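 Mice sensitized with 0.35% DNFB on shaved back, then challenged with 0.25% DNFB on days 6–27; 0.1% N-acetyl/N-acylamino acid in PBS applied topically daily days 22–28, 12 h apart from DNFB. Blinded SCORAD: six symptoms each graded 0–3, summed.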

[11] = listed as L-form N-acetylalanine
[12] = listed as L-form N-acetyltryptophan

| Compound | level of interferon γ in the skin tissue (FIG. 5A) (interferon γ [1]) | serum IgE level (FIG. 4A) (IgE [2]) | serum IgE level (FIG. 4B) (IgE [3]) | atopic dermatitis-treating effect (SCORAD, FIG. 3A) [4] | effect in Nc/Nga model (back skin images, FIG. 3B) [4] | level of interferon γ in the skin tissue (FIG. 5B) (interferon γ [5]) | level of IL4 in the skin tissue (FIG. 5A) (IL4 [6]) | thickness of the epidermal and dermal layers (FIG. 3C) [7] | level of IL4 in the skin tissue (FIG. 5B) (IL4 [8]) | skin-soothing and atopic dermatitis-treating effect (SCORAD, Table 1, FIG. 2A) [10] | apparent degree of dermatitis (back skin images, FIG. 2B) [10] | Mouse 1 Erythema [10] | Mouse 1 Abrasion [10] | Mouse 1 Dryness [10] | Mouse 1 Edema [10] | Mouse 1 Eschar [10] | Mouse 1 Lichenification [10] | Mouse 1 Sum [10] | Mouse 2 Abrasion [10] | Mouse 2 Dryness [10] | further results |
| --- | --- | --- | --- | --- | --- | --- | --- | --- | --- | --- | --- | --- | --- | --- | --- | --- | --- | --- | --- | --- | --- |
| CC(=O)N[C@@H](C)C(=O)O [N-acetyl-L-alanine] | significantly decreased | significant decrease | significant decrease | showed atopic dermatitis-treating effect | remarkable effect | significantly decreased | significantly decreased | significantly decreased | significantly decreased | significant skin-soothing and atopic dermatitis-treating effects; also recorded: significant atopic dermatitis-treating effect | decreased remarkably | 1 | 1 | 2 | 1 | 1 | 0 | 6 | 1 | 0 | dermatitis-treating effect of L-, L/D- and D-form (FIG. 6) [4, 11]: remarkable effect; pruritus-relieving effect (FIG. 7) [9, 11]: significantly inhibited pruritus; Mouse 2 Edema [10]: 1; Mouse 2 Erythema [10]: 1; Mouse 2 Eschar [10]: 1; Mouse 2 Lichenification [10]: 0; Mouse 2 Sum [10]: 4; Mouse 3 Abrasion [10]: 1; Mouse 3 Dryness [10]: 0; Mouse 3 Edema [10]: 1; Mouse 3 Erythema [10]: 1; Mouse 3 Eschar [10]: 1; Mouse 3 Lichenification [10]: 1; Mouse 3 Sum [10]: 5; Mean (of Sum, SCORAD) [10]: 5 |
| CC(=O)N[C@@H](Cc1c[nH]c2ccccc12)C(=O)O [N-acetyl-L-tryptophan] | significantly decreased | significant decrease | significant decrease | showed atopic dermatitis-treating effect | remarkable effect | significantly decreased | significantly decreased | significantly decreased | significantly decreased | significant skin-soothing and atopic dermatitis-treating effects; also recorded: significant atopic dermatitis-treating effect | decreased remarkably | 1 | 1 | 0 | 1 | 1 | 1 | 5 | 0 | 1 | dermatitis-treating effect of L-, L/D- and D-form (FIG. 6) [4, 12]: remarkable effect; pruritus-relieving effect (FIG. 7) [9, 12]: significantly inhibited pruritus; Mouse 2 Edema [10]: 1; Mouse 2 Erythema [10]: 0; Mouse 2 Eschar [10]: 1; Mouse 2 Lichenification [10]: 0; Mouse 2 Sum [10]: 3; Mouse 3 Abrasion [10]: 2; Mouse 3 Dryness [10]: 0; Mouse 3 Edema [10]: 0; Mouse 3 Erythema [10]: 0; Mouse 3 Eschar [10]: 2; Mouse 3 Lichenification [10]: 0; Mouse 3 Sum [10]: 4; Mean (of Sum, SCORAD) [10]: 4 |

Source: US12370161B2, “Composition for treating atopy or pruritus comprising N-acetyl or N-acyl amino acid” (STEMDR INC., priority 2017, dated 2025)
